From ChEMBL document CHEMBL1201862, “PubChem BioAssay data set” (2004)
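Compound exposure: 48 hours, 5 concentrations, 96-well plates. Here, GI50 denotes the concentration required for 50% inhibition of growth.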 Calls of active or inactive are those of the source. Rule as the data show it: active = GI50 up to about 1.1 µM and inactive = higher.

Columns and labels:
Test in all cases: DTP human tumour cell line panel, 48 h
[1] = system: OVCAR-4
[2] = system: IGROV-1
[3] = system: SF-295
[4] = system: T47D
[5] = system: ACHN
[6] = system: UO-31
[7] = system: OVCAR-3
[8] = system: DU-145
[9] = system: A498
[10] = system: MDA-N
[11] = system: HCC 2998
[12] = system: NCI/ADR-RES
[13] = system: SK-MEL-28
[14] = system: EKVX
[15] = system: SW-620
[16] = system: 786-0
[17] = system: COLO 205
[18] = system: KM12
[19] = system: TK-10

Compound	GI50 [1]	GI50 [2]	GI50 [3]	GI50 [4]	GI50 [5]	GI50 [6]	GI50 [7]	GI50 [8]	GI50 [9]	GI50 [10]	GI50 [11]	GI50 [12]	GI50 [13]	GI50 [14]	GI50 [15]	GI50 [16]	GI50 [17]	GI50 [18]	GI50 [19]
OC(CC(O)(C(F)(F)F)C(F)(F)F)c1ccc(C(O)CC(O)(C(F)(F)F)C(F)(F)F)cc1 (configuration not stated)	15.7 µM (inactive)	10.9 µM (inactive)	18.2 µM (inactive)	13.3 µM (inactive)	14.4 µM (inactive)	10.8 µM (inactive)	6.38 µM (inactive)	15 µM (inactive)	12.6 µM (inactive)	19.5 µM (inactive)	17.2 µM (inactive)	14.6 µM (inactive)	16 µM (inactive)	14.7 µM (inactive)	19.2 µM (inactive)	20.4 µM (inactive)			
Cc1c(CCN2CCOCC2)c(N2CCOCC2)n2c(nc3ccccc32)c1C#N	> 10 µM (inactive)	> 10 µM (inactive)	> 10 µM (inactive)	> 10 µM (inactive)	> 10 µM (inactive)	> 10 µM (inactive)	> 10 µM (inactive)	> 10 µM (inactive)	6.31 µM (inactive)	> 10 µM (inactive)		> 10 µM (inactive)	> 10 µM (inactive)	> 10 µM (inactive)	> 10 µM (inactive)	8.95 µM (inactive)	> 10 µM (inactive)	> 10 µM (inactive)	> 10 µM (inactive)
Cc1[nH]c2ncn(Nc3ccccc3)c(=N)c2c1Cc1ccccc1	> 27.5 µM (inactive)	3.85 µM (inactive)		1.07 µM (active)	4.22 µM (inactive)	> 100 µM (inactive)	30.1 µM (inactive)	35.4 µM (inactive)	33 µM (inactive)	0.191 µM (active)	> 100 µM (inactive)	29.6 µM (inactive)		5.89 µM (inactive)	34.1 µM (inactive)	66.1 µM (inactive)	0.0998 µM (active)	5.31 µM (inactive)	> 75.9 µM (inactive)
C(=N\NC1=NCCN1)/c1ccc(-c2cn3cc(/C=N/NC4=NCCN4)ccc3n2)cc1	31 µM (inactive)	15 µM (inactive)	> 44.8 µM (inactive)	> 100 µM (inactive)	34.6 µM (inactive)	46 µM (inactive)	> 39.4 µM (inactive)	16.6 µM (inactive)	40.3 µM (inactive)	> 49 µM (inactive)	> 47.2 µM (inactive)	> 66.2 µM (inactive)		> 50.4 µM (inactive)	> 28.2 µM (inactive)	19 µM (inactive)	> 100 µM (inactive)	> 44 µM (inactive)	26.6 µM (inactive)
FC(F)(F)c1cc(N(C2c3ccccc3C=Cc3ccccc32)P(Cl)Cl)cc(C(F)(F)F)c1	18.9 µM (inactive)	26.2 µM (inactive)	19 µM (inactive)	17.9 µM (inactive)	17.5 µM (inactive)	17.6 µM (inactive)	16.4 µM (inactive)	19.3 µM (inactive)	26.9 µM (inactive)	22 µM (inactive)		3.62 µM (inactive)	25.6 µM (inactive)	17.1 µM (inactive)	25.4 µM (inactive)	16.8 µM (inactive)	22.2 µM (inactive)	21.4 µM (inactive)	33 µM (inactive)
c1ccc(C/C(=N\Nc2nc3ccccc3[nH]2)c2ccccn2)cc1	< 0.01 µM (active)	< 0.01 µM (active)	1.92 µM (inactive)	< 0.01 µM (active)	0.0131 µM (active)	0.0261 µM (active)	< 0.01 µM (active)	0.291 µM (active)	0.217 µM (active)	0.262 µM (active)	13.1 µM (inactive)	< 0.0164 µM (active)	0.231 µM (active)		< 0.01 µM (active)	0.0316 µM (active)	< 0.01 µM (active)	0.16 µM (active)	
COc1ccc(-c2cc(=O)c3c(OC)c(OC)c(OC)c(OC)c3o2)cc1OC [NOBILETIN]	28 µM (inactive)	49.2 µM (inactive)	32.5 µM (inactive)	19.5 µM (inactive)	37.3 µM (inactive)	24.7 µM (inactive)	24.7 µM (inactive)	61.1 µM (inactive)	25.2 µM (inactive)	49.9 µM (inactive)	32.7 µM (inactive)	20.3 µM (inactive)	> 100 µM (inactive)	56.2 µM (inactive)	47.5 µM (inactive)	49.9 µM (inactive)	35 µM (inactive)		50.1 µM (inactive)
